Patent US9833423B2 (KOREA RESEARCH INSTITUTE OF CHEMICAL TECHNOLOGY, priority 2011, dated 2017)
Converted amounts (≈) assume the structure as drawn. Where two headings read alike, the source gives them in different places.

Tests used:
Coxsackie-virus A24 (HG) = assay: Cytopathic effect (CPE) inhibition assay; assay type: cell-based, Coxsackievirus A24; conditions: Table 3, MRC-5, 37° C., 2 days; for EC50: Enterovirus C, MRC5, 48 h
Polio-virus 3 = assay: microbe, parasite or virus in culture; assay type: cell-based, Poliovirus 3; conditions: for EC50: Enterovirus C, HeLa37, 48 h, read-out: EC50 Polio-virus 3
[1] = system: mock-infected cells (HeLa, MRC-5, RD); conditions: human
Coxsackie-virus B3 = assay: Cytopathic effect (CPE) inhibition assay; assay type: cell-based, Coxsackievirus B3; conditions: Table 3, HeLa, 37° C., 2 days; for EC50: Enterovirus B, HeLa37, 48 h, read-out: EC50 Coxsackie-virus B3
Coxsackie-virus B1 = assay: Cytopathic effect (CPE) inhibition assay; assay type: cell-based, Coxsackievirus B1; conditions: Table 3, HeLa, 37° C., 2 days; for EC50: Enterovirus B, HeLa37, 48 h, read-out: EC50 Coxsackie-virus B1
Coxsackie-virus A24 (DN) = assay: Cytopathic effect (CPE) inhibition assay; assay type: cell-based, Coxsackievirus A24; conditions: Table 3, MRC-5, 37° C., 2 days; for EC50: Enterovirus C, MRC5, 48 h
Polio 1 = assay: microbe, parasite or virus in culture; assay type: cell-based, poliovirus 1; conditions: Enterovirus C, BGM, read-out: Polio 1 EC50
Rhino 39 = assay: Multicycle CPE reduction assay; assay type: cell-based, rhinovirus 39; conditions: Enterovirus; 37° C. in HeLa cells
Method: (§1) The test compounds were evaluated for anti-picornavirus activity by a multicycle cytopathic effect (CPE) reduction assay. The antiviral activity was initially determined using an MTS [3-(4,5-dimethylthiazol-2-yl)-5-(3-carboxymethoxyphenyl)-2-(4-sulfophenyl)-2H-tetrazolium]-based CPE reduction assay.
(§2) In this regard, cells grown to confluence in 96-well plates were infected with 100 50% cell culture infective doses (CCID50) of virus. After an adsorption period of 2 hrs at 37° C., virus was removed and serial dilutions of the compounds were added. […] After removal of the medium, 90 μl of a culture medium and 10 μl of MTS-phenazine methosulfate (Promega, Leiden, The Netherlands) were added to each well. After an incubation period of 2 hrs at 37° C., the optical density (OD) of each well was read at 498 nm in a microplate reader.
(§3) CPE values for evaluating antiviral activity were calculated using the following Mathmatic Formula 3: […]
(§4) The 50% effective concentration (EC50) and the 50 cytotoxic concentration (CC50) were defined as the concentrations of compound that offered 50% protection against virus-induced CPE and that killed cells by 50%, respectively, and were calculated using logarithmic interpolation.

Polio 3 = assay: microbe, parasite or virus in culture; assay type: cell-based, poliovirus 3; conditions: Enterovirus C, BGM, read-out: Polio 3 EC50
Rhino 29 = assay: Multicycle CPE reduction assay; assay type: cell-based, rhinovirus 29; conditions: Enterovirus; 37° C. in HeLa cells
Method: as §1, §2, §3, §4

Coxsackie A9 = assay: Multicycle CPE reduction assay; assay type: cell-based, Coxsackievirus A9; conditions: Enterovirus B, 37° C. in BGM cells
Echo 11 = assay: Multicycle CPE reduction assay; assay type: cell-based, echovirus 11; conditions: Enterovirus B; 37° C. in BGM cells
Method: as §1, §2, §3, §4

[2] = system: echovirus 9 and echovirus 11; assay: Multicycle CPE reduction assay, text summary; assay type: cell-based; conditions: Enterovirus B; Table 5; read-out: EC50 against echovirus 9 and echovirus 11
Rhino 45 = assay: Multicycle CPE reduction assay; assay type: cell-based, rhinovirus 45; conditions: 37° C. in HeLa cells
Method: as §1, §2, §3, §4

Rhino 41 = assay: Multicycle CPE reduction assay; assay type: cell-based, rhinovirus 41; conditions: Enterovirus; 37° C. in HeLa cells
Method: as §1, §2, §3, §4

polioviruses 1, 2 and 3 = assay: organism not typed; assay type: cell-based; conditions: read-out: EC50 against polioviruses 1, 2 and 3
Rhino 2 = assay: Multicycle CPE reduction assay; assay type: cell-based, rhinovirus 2; conditions: Enterovirus; 37° C. in HeLa cells
Method: as §1, §2, §3, §4

in vitro = conditions: human, CC50
Rhino 89 = assay: Multicycle CPE reduction assay; assay type: cell-based, rhinovirus 89; conditions: Enterovirus; 37° C. in HeLa cells
Method: as §1, §2, §3, §4

Rhino 70 = assay: Multicycle CPE reduction assay; assay type: cell-based, rhinovirus 70; conditions: 37° C. in HeLa cells, read-out: Rhino 70 EC50
Method: as §1, §2, §3, §4

Rhino 14 = assay: Multicycle CPE reduction assay; assay type: cell-based, rhinovirus 14; conditions: Enterovirus; 37° C. in HeLa cells
Method: as §1, §2, §3, §4

Echo 9 = assay: Multicycle CPE reduction assay; assay type: cell-based, echovirus 9; conditions: Enterovirus B, MRC5; 37° C. in MRC-5 cells
Method: as §1, §2, §3, §4

Entero 71 = assay: Multicycle CPE reduction assay; assay type: cell-based, enterovirus 71; conditions: Enterovirus A; 37° C. in RD cells
Method: as §1, §2, §3, §4

Rhino 85 = assay: Multicycle CPE reduction assay; assay type: cell-based, rhinovirus 85; conditions: Enterovirus; 37° C. in HeLa cells
Method: as §1, §2, §3, §4

Coxsackie B3 = assay: Multicycle CPE reduction assay; assay type: cell-based, Coxsackievirus B3; conditions: Enterovirus B, 37° C. in Vero cells
Method: as §1, §2, §3, §4

Rhino 15 = assay: Multicycle CPE reduction assay; assay type: cell-based, rhinovirus 15; conditions: Enterovirus; 37° C. in HeLa cells
Method: as §1, §2, §3, §4

Rhino 63 = assay: Multicycle CPE reduction assay; assay type: cell-based, rhinovirus 63; conditions: Enterovirus; 37° C. in HeLa cells
Method: as §1, §2, §3, §4

Rhino 9 = assay: Multicycle CPE reduction assay; assay type: cell-based, rhinovirus 9; conditions: Enterovirus; 37° C. in HeLa cells
Method: as §1, §2, §3, §4

[3] = Cytotoxicity (CC50), MTS-based multicycle CPE reduction assay, Experimental Example 2; assay type: cell-based; conditions: Table 5
Method: as §1, §2
CPE values for evaluating cytotoxicity were calculated using the following Mathmatic Formula 4: […]
as §4

Coxsackie-virus B4 = assay: Cytopathic effect (CPE) inhibition assay; assay type: cell-based, Coxsackievirus B4; conditions: Enterovirus B, HeLa37, 48 h; Table 3; HeLa, 37° C., 2 days
Polio-virus 2 = assay: microbe, parasite or virus in culture; assay type: cell-based, Poliovirus 2; conditions: Enterovirus C, read-out: EC50 Polio-virus 2

For `CCCCC(=O)NC1(c2ccc(C(C)C)cc2OC(=O)CCCC)C(=O)c2ccccc2C1=O` [Example 69, 2-(1,3-Dioxo-2-pentanamido-2,3-dihydro-1H-inden-2-yl)-5-isopropylphenyl pentanoate], the “EC50 Coxsackie-virus A24 (HG)” value (Coxsackie-virus A24 (HG)) was less than 1.0 µg/mL, the “EC50 Polio-virus 3” value (Polio-virus 3; Table 3, HeLa, 37° C., 2 days) was less than 1.0 µg/mL and the CC50 [1] was greater than 117 µg/mL. The “EC50 Coxsackie-virus B3” value (Coxsackie-virus B3) was less than 0.01 µg/mL, the melting point was 128 to 130 °C and the “EC50 Coxsackie-virus B1” value (Coxsackie-virus B1) was less than 0.01 µg/mL. For the same compound, the “EC50 Coxsackie-virus A24 (DN)” value (Coxsackie-virus A24 (DN)) was less than 1.0 µg/mL.
In the case of `CC(=O)Oc1cc(C(C)C)ccc1C1(OC(C)=O)C(=O)c2cccc(N)c2C1=O` (stereo not shown) [Example 36, Acetic acid 2-(2-acetoxy-4-isopropyl-phenyl)-4-amino-1,3-dioxo-indan-2-yl ester], the EC50 (Polio 1) is reported as 220 ± 50 nM, the EC50 (Coxsackie-virus A24 (HG)) is reported as less than 0.01 µg/mL and the EC50 (Rhino 39) is reported as 1400 ± 200 nM. The EC50 (Polio 3) was less than 10 nM, the EC50 (Rhino 29) was 5500 ± 720 nM and the EC50 (Coxsackie A9) was 7 ± 0.18 nM. It also gave an EC50 (Echo 11) of 8.2 ± 1.9 nM, an EC50 [2] of 8.2 nM and an EC50 (Polio-virus 3) of less than 0.01 µg/mL. The EC50 (Rhino 45; listed as Ex. 36) was less than 78 nM, the EC50 (Rhino 45; Enterovirus, HeLa) was no more than 78 nM and the EC50 (Coxsackie-virus B3) was less than 0.01 µg/mL. For the same compound, the EC50 (Rhino 41) was 540 ± 3 nM, the EC50 (polioviruses 1, 2 and 3) was 10 nM and the melting point was 148 to 151 °C. It also gave an EC50 (Rhino 2) of 7800 ± 570 nM, a CC50 (in vitro) of 9.42 µg/mL (≈ 23.8 µM) and an EC50 (Rhino 89) of 490 ± 38 nM. It also gave an EC50 (Rhino 70; Enterovirus, HeLa) of no more than 78 nM, an EC50 (Rhino 70; listed as Ex. 36) greater than 78 nM and an EC50 (Rhino 14) of 350 ± 320 nM. For the same compound, the EC50 (Echo 9) was 11 ± 3.2 nM, the EC50 (Entero 71) was 6.7 nM and the EC50 (Rhino 85) was 7500 ± 1200 nM. The EC50 (Coxsackie B3) was less than 10 nM, the EC50 (Rhino 15) was 1500 ± 240 nM and the EC50 (Coxsackie-virus B1) was less than 0.01 µg/mL. For the same compound, the EC50 (Rhino 63) was greater than 10000 nM, the EC50 (Coxsackie-virus A24 (DN)) was less than 0.1 µg/mL and the EC50 (Rhino 9) was 1200 ± 120 nM. It also gave a CC50 at 3 days [3] greater than 50000 nM.
Compound `CCCCC(=O)NC1(c2ccc(C(C)C)cc2OC(=O)CCCC)C(=O)c2ccccc2C1=O` [Example 49, 2-(1,3-Dioxo-2-pentanamido-2,3-dihydro-1H-inden-2-yl)-5-isopropylphenyl pentanoate] has an EC50 (Coxsackie-virus A24 (HG)) of less than 1 µg/mL, an EC50 (Polio-virus 3) of less than 1 µg/mL and an EC50 (Coxsackie-virus B4) of less than 0.01 µg/mL. The EC50 (Coxsackie-virus B3) was less than 0.01 µg/mL, the CC50 (in vitro) was greater than 100 µg/mL and the EC50 (Coxsackie-virus B1) was less than 0.01 µg/mL. For the same compound, the EC50 (Coxsackie-virus A24 (DN)) was less than 1 µg/mL and the EC50 (Polio-virus 2) was less than 1 µg/mL.
